Test results published in PMC8087116 (European journal of pharmaceutical sciences : official …, 2017).

Columns and labels:
[1] = test system: NCI-60 human tumor cell lines; details: for Inhibition against one or more cell lines: single dose 10 μM
HL-60-TB = assay: NCI-60 screening, leukemia HL-60-TB; type: cell-based, human
HOP-62 = assay: NCI-60 screening, NSCL HOP-62; type: cell-based, human
NCI-H23 = assay: NCI-60 screening, NSCL NCI-H23; type: cell-based, human
MOLT-4 = assay: NCI-60 screening, leukemia MOLT-4; type: cell-based, human
PC-3 = assay: NCI-60 screening, prostate PC-3; type: cell-based, human
HOP-92 = assay: NCI-60 screening, NSCL HOP-92; type: cell-based, human
SK-MEL-5 = assay: NCI-60 dose-response, melanoma SK-MEL-5; type: cell-based, human; details: SK-MEL-5 melanoma cell line, five-concentration dose-response
MDA-MB-468 = assay: NCI-60 screening, breast MDA-MB-468; type: cell-based, human
LOX IMVI = assay: NCI-60 dose-response, melanoma LOX IMVI; type: cell-based, human; details: LOX IMVI melanoma cell line, five-concentration dose-response
MALME-3 M = assay: NCI-60 dose-response, melanoma MALME-3 M; type: cell-based, human; details: MALME-3 M melanoma cell line, five-concentration dose-response
M14 = assay: NCI-60 dose-response, melanoma M14; type: cell-based, human; details: M14 melanoma cell line, five-concentration dose-response
COLO-205 = assay: NCI-60 dose-response, colon COLO-205; type: cell-based, human; details: COLO-205 colon cancer cell line, five-concentration dose-response
SR cell line = assay: NCI-60 dose-response, leukemia SR; type: cell-based, human; details: five-concentration dose-response
SW-620 = assay: NCI-60 dose-response, colon SW-620; type: cell-based, human; details: SW-620 colon cancer cell line, five-concentration dose-response
MDA-MB-231/ATCC = assay: NCI-60 dose-response, breast MDA-MB-231/ATCC; type: cell-based, human; details: MDA-MB-231/ATCC breast cancer cell line, five-concentration dose-response
CCRF-CEM = assay: NCI-60 screening, leukemia CCRF-CEM; type: cell-based, human
RPMI-8226 = assay: NCI-60 screening, leukemia RPMI-8226; type: cell-based, human

COC(=O)[C@H](NS(=O)(=O)N(c1cccc(F)c1)C1CCN(Cc2ccc(F)cc2)CC1)C(C)C [Compound 18]
Inhibition against one or more cell lines [1]: > 50% | Inhibition of sensitive tumor cell lines at 10 μM conc. (HL-60-TB): Leukemia: HL-60-TB (56%)

CC(C)[C@@H](NS(=O)(=O)N(c1cccc(F)c1)C1CCN(Cc2ccc(O)cc2)CC1)C(=O)O [Compound 19]
Inhibition against one or more cell lines [1]: > 50% | Inhibition of sensitive tumor cell lines at 10 μM conc. (HOP-62): 88% | Inhibition of sensitive tumor cell lines at 10 μM conc. (NCI-H23): 58%

COC(=O)[C@@H](CC(C)C)NS(=O)(=O)N(c1cccc(F)c1)C1CCN(Cc2ccc(C(F)(F)F)cc2)CC1 [Compound 25]
Inhibition against one or more cell lines [1]: > 50% | Inhibition of sensitive tumor cell lines at 10 μM conc. (MOLT-4): 56% | Inhibition of sensitive tumor cell lines at 10 μM conc. (PC-3): 50% | Inhibition of sensitive tumor cell lines at 10 μM conc. (HOP-92): 60%

COC(=O)[C@@H](C)CNS(=O)(=O)N(c1cc(C(F)(F)F)cc(C(F)(F)F)c1)C1CCN(Cc2ccc(F)cc2)CC1 [Compound 26]
GI50 (SK-MEL-5): 3.19 µM | GI50 (MDA-MB-468; MDA-MB-468 breast cancer cell line, five-concentration dose-response): 3.25 µM | GI50 (LOX IMVI): 8.1 µM | GI50 (MALME-3 M): 6.89 µM | GI50 (M14): 3.75 µM | Cytotoxicity as indicated by LC50 values, words [1]: not cytotoxic for most of the cell lines | GI50 ([1]; all remaining subpanel cell lines of NCI-60): ≤ 21 µM | TGI (total growth inhibition, cytostatic activity), words ([1]; dose-response, NCI-60 panel): total growth inhibition of most of the cell lines at moderate concentrations | GI50 (COLO-205): 1.88 µM | GI50 (SR cell line): 3.18 µM | GI50 (SW-620): 11.1 µM | GI50 (MDA-MB-231/ATCC): 12.7 µM | GI50 (CCRF-CEM; CCRF-CEM leukemia cell line, five-concentration dose-response): 12.8 µM

COC(=O)[C@@H](NS(=O)(=O)N(c1ccc(F)cc1)C1CCN(C(=O)c2ccc(F)cc2)CC1)C(C)C [Compound 36]
Inhibition against one or more cell lines [1]: > 50% | Inhibition of sensitive tumor cell lines at 10 μM conc. (HL-60-TB): Leukemia: HL-60-TB (57%)

COC(=O)[C@H](NS(=O)(=O)N(c1ccc(F)cc1)C1CCN(Cc2ccc(F)cc2)CC1)C(C)C [Compound 37]
Inhibition against one or more cell lines [1]: > 50% | Inhibition of sensitive tumor cell lines at 10 μM conc. (HL-60-TB): Leukemia: HL-60-TB (60%)

COC(=O)[C@@H](OC(=O)NS(=O)(=O)N(c1ccc(F)cc1)C1CCN(Cc2ccc(F)cc2)CC1)C(C)C [Compound 39]
Inhibition against one or more cell lines [1]: > 50%

O=S(=O)(c1ccc(Br)cc1)N(c1cccc(F)c1)C1CCN(Cc2ccc(F)cc2)CC1 [Compound 49]
Inhibition of sensitive tumor cell lines at 10 μM conc. (MDA-MB-468; 10 μM, Breast MDA-MB-468): 53% | Inhibition against one or more cell lines [1]: > 50% | Inhibition of sensitive tumor cell lines at 10 μM conc. (RPMI-8226): 65% | Inhibition of sensitive tumor cell lines at 10 μM conc. (CCRF-CEM; 10 μM, Leukemia CCRF-CEM): 51%
